# pIC50: −log10 of the molar value. Where two headings read alike, the source gives them in different places.
# Tested on: HL-60 cells
# Assay: HL-60 leukemia cell growth (Coulter counter or MTT assay)
# Type: cell-based, human
# Details: for pIC50: Homo sapiens; for effect on cell growth: HL-60, NAC 0.3-0.5 mM or BSO 0.2-0.3 mM alone; for inhibition of cell growth: HL-60 screen
# Description: Cell Lines and Culture Conditions. HL-60, DLD1, and U937 cells were obtained from ATCC (Rockville, Md.). Meth A cells were from Dr. Wolfram Samlowski (University of Utah, Salt Lake City, Utah). The PPC-1 cell line was provided by Dr. Graeme Bolger (University of Alabama, Birmingham, Ala.). For the cell growth and apoptosis experiments, cells were cultured at a density of 150,000 cells/ml in RPMI-1640 with 10% fetal bovine serum at 37° C. in a 5% CO2 humidified atmosphere. Agents were added at the indicated concentrations 24 h after culture initiation. At the indicated time intervals, cells were harvested and washed twice in phosphate buffered saline (PBS) prior to processing for analysis of growth, differentiation, and apoptosis.
# Cell Growth, Differentiation and Apoptosis Assays. The number of viable cells was determined using the MTT assay according to the manufacturer's protocol (Promega, Madison, Wis.) or using a Coulter counter. Briefly, a MTT assay is an analytical technique that uses the dye dimethylthiazolyl-diphenyltetrazolium (MTT) which turns from yellow to brownish-purple as it is reduced in the mitochondria of living cells. The assay is useful in calorimetric quantitation of cell viability and proliferation. In contrast, cell differentiation was evaluated using Wright and Non-Specific Esterase (NSE) staining of cells collected on microscope slides by cytospin as previously described (Magrinat, G. et al. (1992) Blood 80: 1880-1884). Apoptosis was assayed by flow cytometry and by determining DNA fragmentation using agarose gel electrophoresis as previously described (Shami, P. J. et al. (1998) Leukemia 12: 1461-1466). For the flow cytometry assay, we used the propidium iodide staining method of Nicoletti et al. (Nicoletti, I. et al. (1991) J. Immunol. Methods 139: 271-279).
# For the initial screen, HL60 cells were cultured in triplicate in RPMI1640/10% FBS under standard conditions. Compounds were added to the cultures at the following concentrations: 0, 0.1, 1, 10, and 100 micromolar (uM). Three days after addition of the compounds cell growth was determined either using a Coulter counter or using the MTT assay.
# The antiproliferative effects in the human AML (Acute Myeloid Leukemia) cell lines, HL-60 (myeloid leukemia) and U937 (monoblastic leukemia) cells were treated with JS-K for a period of 3 days, upon which cell growth was evaluated using a Coulter counter (CITY, STATE). JS-K was added to HL-60 cells at 0, 0.25, 0.5, 0.75, and 1.0 μM concentrations. […] Similar results were obtained in U937 cells under similar conditions.
# [1] = HL-60 assay system, comparison with chemotherapeutic agents, read-out: IC50, growth inhibition
structure (smiles),measurement,setting,value
"O=[N+]([O-])c1ccc(Cl)c([N+](=O)[O-])c1 [1-Chloro-2,4-dinitrobenzene, reference compound]",pIC50,"HL-60, read-out: IC50, growth inhibition",~5.17
"CCCCS(=N)(=O)CCC(N)C(=O)O (stereo not shown) [BSO, buthionine sulfoximine, reference compound]",effect on cell growth,,did not appear to significantly affect cell growth
"O=[N+]([O-])c1ccc(ON=[N+]([O-])N2CCN(c3ccccc3)CC2)c([N+](=O)[O-])c1 [JXC-2-40, O^2-(2,4-dinitrophenyl) 1-[4-phenylpiperazin-1-yl]diazen-1-ium-1,2-diolate]",inhibition of cell growth,,good inhibitors of cell growth
"O=[N+]([O-])c1ccc(ON=[N+]([O-])N2CCN(c3ncccn3)CC2)c([N+](=O)[O-])c1 [JXC-2-56, O^2-(2,4-dinitrophenyl) 1-[4-(pyrimidin-2-yl)piperazin-1-yl]diazen-1-ium-1,2-diolate]",inhibition of cell growth,,good inhibitors of cell growth
"CC(=O)N[C@@H](CS)C(=O)O [NAC, N-acetyl-L-cysteine, reference compound]",effect on cell growth,,did not appear to significantly affect cell growth
"COc1cccc2c1C(=O)c1c(O)c3c(c(O)c1C2=O)C[C@@](O)(C(C)=O)C[C@@H]3O[C@H]1C[C@H](N)[C@H](O)[C@H](C)O1 [daunorubicin, reference compound]",pIC50,[1],8.00
"COc1cc([C@@H]2c3cc4c(cc3[C@@H](O[C@@H]3O[C@@H]5CO[C@@H](C)O[C@H]5[C@H](O)[C@H]3O)[C@H]3COC(=O)[C@H]23)OCO4)cc(OC)c1O [etoposide, reference compound]",pIC50,[1],6.52
